Assay results published in patent US20050171084A1, “Methods of treatment with lxr modulators” (priority 2002, published 2005).

Columns and labels:
[1] = system: rat pheochromocytoma cells; conditions: Schmidt, et al. (19); cited from earlier work
Hippocampal neurons = assay: Neurite outgrowth in hippocampal neurons; format: cell-based, rat; conditions: HC neurons, 48 hours, SEM in parentheses
Experimental: Hippocampal neurons: The hippocampi of gestational day 18 rat embryos were dissected out, incubated in trypsin (0.08%, 30 min at 37° C.) and dissociated mechanically (16). Hippocampal cells were resuspended in neurobasal medium supplemented with B27, anti-oxidants, 1 mM glutamine, 25 μM glutamate, 1 mM pyruvate. For outgrowth assays, cells were plated at a density of 3000 cells/well into 96 well dishes that had previously been coated with poly-D-lysine followed by 10% FCS and cultured for 48 hours.
The test compound was solubilised in DMSO and added to culture medium at time of cell plating at a dilution of 1:1000. Vehicle only (1:1000) was added to culture medium of untreated controls. Cells were fixed with 4% paraformaldehyde for 1 hour on ice, washed with PBS and stained using Coomassie. Assays were quantified using a KS300 image analysis system (Imaging Associates, UK). For each cell measured, the length from the edge of the cell to the end of the longest neurite was measured for 100 cells/well for each treatment in triplicate. All data are means and SEM pooled from three independent experiments. Results are expressed as a percentage of the length of neurites of cells treated with vehicle alone.

LXRβ protein = biological target: T1, LXRβ protein (Homo sapiens, UniProt P55055); conditions: 1 μM; over a background reading of 10000 fluorescence units; cited from earlier work
T1 sequence (P55055 1-460): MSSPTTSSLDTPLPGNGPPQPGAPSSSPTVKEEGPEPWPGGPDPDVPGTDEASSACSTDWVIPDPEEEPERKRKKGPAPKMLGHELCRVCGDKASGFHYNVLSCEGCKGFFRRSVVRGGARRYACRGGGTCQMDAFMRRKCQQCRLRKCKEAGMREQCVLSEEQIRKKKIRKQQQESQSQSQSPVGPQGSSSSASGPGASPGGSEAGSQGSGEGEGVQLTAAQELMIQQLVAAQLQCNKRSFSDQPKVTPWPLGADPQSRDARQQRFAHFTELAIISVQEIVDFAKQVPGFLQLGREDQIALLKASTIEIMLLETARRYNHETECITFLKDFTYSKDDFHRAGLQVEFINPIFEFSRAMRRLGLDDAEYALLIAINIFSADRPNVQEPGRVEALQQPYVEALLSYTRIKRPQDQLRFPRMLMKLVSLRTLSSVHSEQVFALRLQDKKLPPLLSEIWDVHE

| Structure (SMILES) | neuronal differentiation [1] | length of longest neurite, percentage of cells treated with vehicle alone (Hippocampal neurons; 0.3 μm test compound) | length of longest neurite, percentage of cells treated with vehicle alone (Hippocampal neurons; 1.0 μm test compound) | length of longest neurite, percentage of cells treated with vehicle alone (Hippocampal neurons; 3.0 μm test compound) | length of longest neurite, percentage of cells treated with vehicle alone (Hippocampal neurons; 10.0 μm test compound) | fluorescence reading (LXRβ protein) [fluorescence units] |
| --- | --- | --- | --- | --- | --- | --- |
| CCCCCCCCCCCCCCOc1ccc(C(=O)O)o1 [5-tetradecyloxy-2-furancarboxylic acid] | induced neuronal differentiation | – | – | – | – | – |
| CC(C)CC[C@@H](O)[C@@H](C)[C@H]1CC[C@H]2[C@@H]3CC=C4C[C@@H](O)CC[C@]4(C)[C@H]3CC[C@]12C [22(R) hydroxychol., 22(R)-hydroxycholesterol, reference compound] | induced neuronal differentiation | 115.9 (6.02) % | 116 (7.45) % | 129.9 (4.12) % | 127.9 (6.18) % | – |
| C[C@H](CC[C@@H]1OC1(C)C)[C@H]1CC[C@H]2[C@@H]3CC=C4C[C@@H](O)CC[C@]4(C)[C@H]3CC[C@]12C [24(S), 25-epoxycholesterol] | – | – | – | – | – | 20000 |
